# According to patent publication US20250120942A1, “BRAIN FUNCTION IMPROVING AGENT” (OSAKA UNIVERSITY, priority 2021, published 2025):
# Tested on: mouse reared in long-term isolation
# Experiment: Novel object recognition test after long-term administration in feed during isolated rearing (Test Example 4)
# Format: in vivo, ddY mouse
# Settings: MF powdery feed containing 7 mg/100 g for 5 weeks of isolation; FIG. 4(A),(B)
# Method: The compound A was orally administered for a long time and the effect of preventing the onset of cognitive dysfunction caused by the long-term isolated rearing was examined.
# 3-weeks-old male ddY mice were purchased from Japan SLC, Inc. The mice were reared in the rearing chamber provided with air conditioner (under the condition that the temperature was 22° C.±1° C., the relative humidity was 50±10%, and the irradiation time was 12 hours (8:00 to 20:00)). The feeding method was that the commercially available MF powdery feed (manufactured by Oriental Yeast Co., ltd.) and tap water were taken freely. […]
# After the long-term rearing of 5 weeks, the object cognitive function was evaluated by the same method as that described in Test Example 3 and the effect of preventing the onset of cognitive dysfunction by administering the compound A during the long-term rearing was examined.
# From the results obtained, the mean (Mean) and the standard error (SEM) were calculated. The significant difference of exploratory time in each group was assessed by using Student's t-test and the significant differences between the control group and Vehicle group and between the administration group of compound A and Vehicle group of Discrimination index were assessed by using Turkey-Kramer's test. […]
smiles,measurement,value
"O=C1CC[C@H](Cc2cc(O)cc(O)c2)O1 [compound A, (R)-5-(3,5-dihydroxyphenyl)-γ-valerolactone]",onset of cognitive dysfunction caused by long-term isolated rearing stress (exploratory time and Discrimination index),significantly inhibited
